What all share (type): functional, organism-based
Experiment [1] has as its system Bacillus anthracis. Briefly: Antimicrobial activity against Bacillus anthracis MurA1 AS clone 2G2 assessed as growth inhibition in presence of xylose by antisense-induced hypersensitive testing.
In experiment [2] the test system is Bacillus anthracis. Briefly: Antimicrobial activity against Bacillus anthracis MurA1 AS clone 2G2 assessed as growth inhibition in absence of xylose by antisense-induced hypersensitive testing.
Experiment [3] deals with Bacillus anthracis. Briefly: Antimicrobial activity against Bacillus anthracis metRS1 AS 1H1 assessed as growth inhibition in presence of xylose by antisense-induced hypersensitive testing.
Where [4] appears, read: Bacillus anthracis, MurA1 AS clone 2G2, read-out: IC50.

The record followed here is ChEMBL document CHEMBL1275423 (Antimicrob Agents Chemother, 2008).

Values after ≈ are worked out from the molar mass of the structure shown. Active and inactive are the calls of the source. The rule behind the calls is not given here.

What is called IC50 is the concentration that gives 50% inhibition.

Consider `CN(C)[C@@H]1C(O)=C(C(N)=O)C(=O)[C@@]2(O)C(O)=C3C(=O)c4c(O)cccc4[C@@](C)(O)[C@H]3C[C@@H]12` [TETRACYCLINE], for which the concentration for half-maximal inhibition (IC50) result with Bacillus anthracis [1] and in the experiment on Bacillus anthracis [2] was “Not Active” each time.
For `Cc1onc(-c2ccccc2)c1C(=O)N[C@@H]1C(=O)N2[C@@H]1SC(C)(C)[C@@H]2C(=O)O`, in the experiment on Bacillus anthracis [1], the inhibition entry was “Active”.
In the case of `C[C@@H]1O[C@@H]1P(=O)(O)O` [FOSFOMYCIN], the IC50 was determined as 18 µg/mL in the experiment with Bacillus anthracis [1] (setting [4]) and 126 µg/mL (≈ 913 µM) in the experiment with Bacillus anthracis [2] (setting [4]).
Regarding `CN[C@H](CC(C)C)C(=O)N[C@H]1C(=O)N[C@@H](CC(N)=O)C(=O)N[C@H]2C(=O)N[C@H]3C(=O)N[C@H](C(=O)N[C@H](C(=O)O)c4cc(O)cc(O)c4-c4cc3ccc4O)[C@H](O)c3ccc(c(Cl)c3)Oc3cc2cc(c3O[C@@H]2O[C@H](CO)[C@@H](O)[C@H](O)[C@H]2O[C@H]2C[C@](C)(N)[C@H](O)[C@H](C)O2)Oc2ccc(cc2Cl)[C@H]1O`, the inhibition entry in the experiment with Bacillus anthracis [1] was “Active”.
Same read-out and setting: for `CCN1CCN(C(=O)N[C@@H](C(=O)N[C@@H]2C(=O)N3[C@@H]2SC(C)(C)[C@@H]3C(=O)O)c2ccccc2)C(=O)C1=O` the value was “Active”.
Turning to `O=C(O)c1ccc(OCc2nc3ccccc3[nH]2)c(OCc2ccc(Cl)cc2Cl)c1`, in the experiment with Bacillus anthracis [3], the inhibition entry is “Active”.
